Experiments:
[1] = target: IL-17A(FLAG-Tagged): IL-17RA(His-Tagged) (Homo sapiens, UniProt Q16552, K93Q); test: IL-17A(FLAG-Tagged): IL-17RA(His-Tagged) Binding Disruption Eu-HTRF Assay; settings: IL-17A/IL-17RA binding disruption, simple average if tested more than once
Outline: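 IC50 comes from a one-site competition fit of the HTRF 665/620 nm ratio. Compound dilutions (2-fold, 22 points) were held 1 h rt with FLAG-tagged IL-17A dimer, then His-tagged IL-17RA plus Eu-cryptate anti-FLAG and D2 anti-His antibodies were added for 2 h rt.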

[2] = system: IL-17A-induced G-CSF production in human normal keratinocyte (NHK); test: NHK Assay: IL-17A-induced G-CSF production in human normal keratinocytes; assay type: cell-based; settings: 24 h, adult normal human keratinocytes, IL-17A 5 ng/mL, simple average if tested more than once
Outline: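 Compound is first combined with recombinant human IL-17A for 1 h at rt, and the mix is added to adult normal human keratinocytes so that IL-17A is 5 ng/mL. After 24 h at 37° C in 5% FBS, G-CSF released into the medium is read by HTRF and IC50 derived.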

Sequence of UniProt Q16552 (Q16552 with tags, fused parts or gaps K93Q): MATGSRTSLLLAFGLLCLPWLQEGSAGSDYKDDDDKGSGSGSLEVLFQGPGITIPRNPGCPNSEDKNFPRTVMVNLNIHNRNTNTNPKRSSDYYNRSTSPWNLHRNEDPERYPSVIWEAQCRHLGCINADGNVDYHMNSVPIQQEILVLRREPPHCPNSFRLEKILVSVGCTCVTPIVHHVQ

Compound | IC50 [1] [nM] | IC50 ([2]; Homo sapiens, Keratinocyte) [nM] | IC50 [2] [nM]
O=C(CCC(F)(F)F)N[C@@H](c1cnn2cc([C@@H](NC(=O)[C@@H]3C[C@@H]3C(F)F)C3CCC(F)(F)CC3)nc2c1)C1CC1 (relative stereo) [Example 358, (1R*,2S*)—N—((S)-(7-((R*)-Cyclopropyl(4,4,4-trifluorobutanamido)methyl)imidazo[1,2-b]pyridazin-2-yl)(4,4-difluorocyclohexyl)methyl)-2-(difluoromethyl)cyclopropane-1-carboxamide] | 450 | 2100 | 
CC[C@H](NC(=O)CC1CC(F)(F)C1)c1cnn2cc([C@@H](NC(=O)c3nonc3C3CC3)C3CCC(F)(F)CC3)nc2c1 (relative stereo) [Example 521, 4-Cyclopropyl-N—((S*)-(7-((R)-1-(2-(3,3-difluorocyclobutyl)acetamido)propyl)imidazo[1,2-b]pyridazin-2-yl)(4,4-difluorocyclohexyl)methyl)-1,2,5-oxadiazole-3-carboxamide] | 390 | 8000 | 
N#Cc1cccc(C(=O)N[C@H](c2cn3ncc([C@H](NC(=O)CCC(F)(F)F)C4CC4)cc3n2)C2CCC(F)(F)CC2)c1 [Example 188, 3-Cyano-N—((S)-(7-((R)-cyclopropyl(4,4,4-trifluorobutanamido)methyl)imidazo[1,2-b]pyridazin-2-yl)(4,4-difluorocyclohexyl)methyl)benzamide] | 150 | 750 | 
CC(C)n1nccc1C(=O)N[C@H](c1cn2ncc([C@H](NC(=O)CCC3CC3(F)F)C3CC3)cc2n1)C1CCC(F)(F)CC1 (single isomer, unassigned) [Example 271, N—((S)-(7-((R)-Cyclopropyl(3-((S*)-2,2-difluorocyclopropyl)propanamido)methyl)imidazo[1,2-b]pyridazin-2-yl)(4,4-difluorocyclohexyl)methyl)-1-isopropyl-1H-pyrazole-5-carboxamide] | 140 |  | 67
CO[C@@H](C)[C@@H](NC(=O)CC1CC(F)(F)C1)c1cnn2cc([C@@H](NC(=O)c3ccnn3C(C)C)C3CCC(F)(F)CC3)nc2c1 [Example 322, N—((S)-(7-((1S,2S)-1-(2-(3,3-Difluorocyclobutyl)acetamido)-2-methoxypropyl)imidazo[1,2-b]pyridazin-2-yl)(4,4-difluorocyclohexyl)methyl)-1-isopropyl-1H-pyrazole-5-carboxamide] | 310 | 96 | 
Cc1nonc1C(=O)N[C@H](c1cn2ncc([C@H](NC(=O)COC(F)F)C3CC3)cc2n1)C1CCC(F)(F)CC1 [Example 278, N—((S)-(7-((R)-Cyclopropyl(2-(difluoromethoxy)acetamido)methyl)imidazo[1,2-b]pyridazin-2-yl)(4,4-difluorocyclohexyl)methyl)-4-methyl-1,2,5-oxadiazole-3-carboxamide] | 1100 | 2500 | 
COc1nocc1C(=O)N[C@H](c1cn2ncc([C@H](NC(=O)CCC(F)(F)F)C3CC3)cc2n1)C1CCC(F)(F)CC1 [Example 239, N—((S)-(7-((R)-Cyclopropyl(4,4,4-trifluorobutanamido)methyl)imidazo[1,2-b]pyridazin-2-yl)(4,4-difluorocyclohexyl)methyl)-3-methoxyisoxazole-4-carboxamide] | 430 | 1300 | 
C[C@H](CC(=O)N[C@@H](c1cnn2cc([C@@H](NC(=O)[C@@H]3C[C@H]3C(F)(F)F)C3CCC(F)(F)CC3)nc2c1)C1CC1)C(F)(F)F (relative stereo) [Example 241, (trans-1R*,2R*)—N—((S)-(7-((R)-Cyclopropyl((R*)-4,4,4-trifluoro-3-methylbutanamido)methyl)imidazo[1,2-b]pyridazin-2-yl)(4,4-difluorocyclohexyl)methyl)-2-(trifluoromethyl)cyclopropane-1-carboxamide] | 3400 | > 20000 | 
CC1(C)CC1C(=O)N[C@H](c1cn2ncc([C@H](NC(=O)CCC(F)(F)F)C3CC3)cc2n1)C1CCC(F)(F)CC1 (stereo partly drawn) [Example 62, N—((S)-(7-((R)-Cyclopropyl(4,4,4-trifluorobutanamido)methyl)imidazo[1,2-b]pyridazin-2-yl)(4,4-difluorocyclohexyl)methyl)-2,2-dimethylcyclopropane-1-carboxamide] | 830 | ~4000 | 
Cc1ncccc1C(=O)N[C@H](c1cn2ncc([C@H](NC(=O)CCC(F)(F)F)C3CC3)cc2n1)C1CCC(F)(F)CC1 [Example 200, N—((S)-(7-((R)-Cyclopropyl(4,4,4-trifluorobutanamido)methyl)imidazo[1,2-b]pyridazin-2-yl)(4,4-difluorocyclohexyl)methyl)-2-methylnicotinamide] | 760 | 2200 | 

Stronger by IC50 [1], values ahead:

IC50 [1] [nM] | Compound | IC50 ([2]; Homo sapiens, Keratinocyte) [nM] | IC50 [2] [nM]
98 | O=C(CC1CC(F)(F)C1)NC(c1cnn2cc([C@@H](NC(=O)c3nonc3C3CC3)C3CCC(F)(F)CC3)nc2c1)C(F)(F)F (single isomer, unassigned) [Example 421, 4-Cyclopropyl-N—((S)-(7-((S*)-1-(2-(3,3-difluorocyclobutyl)acetamido)-2,2,2-trifluoroethyl)imidazo[1,2-b]pyridazin-2-yl)(4,4-difluorocyclohexyl)methyl)-1,2,5-oxadiazole-3-carboxamide] | 43 | 
84 | Cc1nocc1C(=O)N[C@H](c1cn2ncc([C@H](NC(=O)CCC(F)(F)F)C3CC3)cc2n1)C1CCC(F)(F)CC1 [Example 79, N—((S)-(7-((R)-Cyclopropyl(4,4,4-trifluorobutanamido)methyl)imidazo[1,2-b]pyridazin-2-yl)(4,4-difluorocyclohexyl)methyl)-3-methylisoxazole-4-carboxamide] | 150 | 
69 | O=C(CCC(F)(F)F)N[C@@H](c1cnn2cc([C@@H](NC(=O)c3cncc(OCC(F)F)c3)C3CCC(F)(F)CC3)nc2c1)C1CC1 [Example 183, N—((S)-(7-((R)-Cyclopropyl(4,4,4-trifluorobutanamido)methyl)imidazo[1,2-b]pyridazin-2-yl)(4,4-difluorocyclohexyl)methyl)-5-(2,2-difluoroethoxy)nicotinamide] | 520 | 
61 | Cc1nscc1C(=O)N[C@H](c1cn2ncc([C@H](NC(=O)CCC(F)(F)F)C3CC3)cc2n1)C1CCC(F)(F)CC1 [Example 161, N—((S)-(7-((R)-Cyclopropyl(4,4,4-trifluorobutanamido)methyl)imidazo[1,2-b]pyridazin-2-yl)(4,4-difluorocyclohexyl)methyl)-3-methylisothiazole-4-carboxamide] | 310 | 
48 | O=C(CCC(F)(F)F)N[C@@H](c1cnn2cc([C@@H](NC(=O)c3nonc3OC3CC3)C3CCC(F)(F)CC3)nc2c1)C1CC1 [Example 380, 4-Cyclopropoxy-N—((S)-(7-((R)-cyclopropyl(4,4,4-trifluorobutanamido)methyl)imidazo[1,2-b]pyridazin-2-yl)(4,4-difluorocyclohexyl)methyl)-1,2,5-oxadiazole-3-carboxamide] | 30 | 
43 | CC(C)c1oncc1C(=O)N[C@H](c1cn2ncc([C@H](NC(=O)CCC(F)(F)F)C3CC3)cc2n1)C1CCC(F)(F)CC1 [Example 232, N—((S)-(7-((R)-Cyclopropyl(4,4,4-trifluorobutanamido)methyl)imidazo[1,2-b]pyridazin-2-yl)(4,4-difluorocyclohexyl)methyl)-5-isopropylisoxazole-4-carboxamide] | 65 | 
40 | [2H]C([2H])([2H])C([2H])([2H])n1nccc1C(=O)N[C@H](c1cn2ncc(C(NC(=O)CC3CC(F)(F)C3)C3CCC3)cc2n1)C1CCC(F)(F)CC1 (single isomer, unassigned) [Example 495, N—((S)-(7-((R*)-Cyclobutyl(2-(3,3-difluorocyclobutyl)acetamido)methyl)imidazo[1,2-b]pyridazin-2-yl)(4,4-difluorocyclohexyl)methyl)-1-(ethyl-d5)-1H-pyrazole-5-carboxamide] |  | 300
34 | Cc1nonc1C(=O)N[C@H](c1cn2ncc([C@H](NC(=O)CC3CC(F)(F)C3)C3CC3)cc2n1)C1CCC(F)(F)CC1 [Example 142, N—((S)-(7-((R)-Cyclopropyl(2-(3,3-difluorocyclobutyl)acetamido)methyl)imidazo[1,2-b]pyridazin-2-yl)(4,4-difluorocyclohexyl)methyl)-4-methyl-1,2,5-oxadiazole-3-carboxamide] | 140 | 
33 | CCc1nocc1C(=O)N[C@H](c1cn2ncc([C@H](NC(=O)CCC(F)(F)F)C3CC3)cc2n1)C1CCC(F)(F)CC1 [Example 83, N—((S)-(7-((R)-Cyclopropyl(4,4,4-trifluorobutanamido)methyl)imidazo[1,2-b]pyridazin-2-yl)(4,4-difluorocyclohexyl)methyl)-3-ethylisoxazole-4-carboxamide] | 60 | 
30 | CC(C)C(NC(=O)CC1CC(F)(F)C1)c1cnn2cc([C@@H](NC(=O)c3nonc3C3CC3)C3CCC(F)(F)CC3)nc2c1 (single isomer, unassigned) [Example 512, 4-Cyclopropyl-N—((S)-(7-((S*)-1-(2-(3,3-difluorocyclobutyl)acetamido)-2-methylpropyl)imidazo[1,2-b]pyridazin-2-yl)(4,4-difluorocyclohexyl)methyl)-1,2,5-oxadiazole-3-carboxamide] | 35 | 
